For experiment [1], the target named is T1, ASAP1PZA (Mus musculus, UniProt Q9QWY8).
T1 sequence (Q9QWY8 325-724 limits assumed): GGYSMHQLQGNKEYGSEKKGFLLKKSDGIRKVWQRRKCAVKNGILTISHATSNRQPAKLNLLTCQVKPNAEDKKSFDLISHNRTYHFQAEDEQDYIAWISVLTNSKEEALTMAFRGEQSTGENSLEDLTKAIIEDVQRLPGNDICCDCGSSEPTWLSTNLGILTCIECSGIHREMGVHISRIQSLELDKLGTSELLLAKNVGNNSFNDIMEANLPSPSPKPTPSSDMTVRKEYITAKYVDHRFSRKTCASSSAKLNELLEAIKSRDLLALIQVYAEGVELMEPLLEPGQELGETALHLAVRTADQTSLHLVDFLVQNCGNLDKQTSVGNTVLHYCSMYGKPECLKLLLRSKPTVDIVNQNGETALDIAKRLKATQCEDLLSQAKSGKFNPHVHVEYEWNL
The experiment is described as follows: GAP assay, conversion of Arf1-GTP to Arf1-GDP. The format is biochemical.

Another experiment concerns the target myrArf1. The settings on record: NAV-2729 partitioned in LUVs; PBS, room temperature; not myristoylated.
A further experiment addresses ASAP1 (full-length) (Mus musculus, UniProt Q9QWY8). The experiment is described as follows: GAP assay, conversion of Arf1-GTP to Arf1-GDP. The class given is biochemical.
The subject of another experiment is C2C12. The experiment is described as follows: cells. The note with it: Mus musculus.
In a further experiment the test system is NIH3T3. Nature of the experiment: cells. The note with it: Mus musculus.
The next experiment concerns SMS-CTR. The experiment is described as follows: cells.
The test system of another experiment is RD. The experiment is described as follows: cells. The settings on record: Homo sapiens, RD.
In the next experiment the target is Brag2Sec7-PH (Homo sapiens, UniProt Q6DN90). The experiment is described as follows: GEF assay, […]GTPgammaS binding to Arf1, filter trapping. The class given is biochemical. (Binding of GTPγS marks nucleotide exchange on a G protein.)
Sequence of Brag2Sec7-PH (Q6DN90 512-885): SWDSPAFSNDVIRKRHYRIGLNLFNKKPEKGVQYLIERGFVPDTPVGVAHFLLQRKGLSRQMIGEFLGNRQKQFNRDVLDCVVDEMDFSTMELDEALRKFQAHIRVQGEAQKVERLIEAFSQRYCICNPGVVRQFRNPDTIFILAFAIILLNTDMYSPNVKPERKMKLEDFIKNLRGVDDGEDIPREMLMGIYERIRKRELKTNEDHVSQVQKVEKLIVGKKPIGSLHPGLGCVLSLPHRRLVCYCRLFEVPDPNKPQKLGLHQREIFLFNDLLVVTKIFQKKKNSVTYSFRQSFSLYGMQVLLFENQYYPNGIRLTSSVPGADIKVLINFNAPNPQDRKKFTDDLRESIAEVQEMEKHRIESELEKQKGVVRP
The target in experiment [2] is T1, ASAP1PZA. Nature of the experiment: thermal shift, soluble fraction by SDS-PAGE. The format is binding. The note with it: 10 μM protein, no membrane.
In another experiment the test system is OSA. Nature of the experiment: cells.
For a further experiment, the system named is U2OS. Nature of the experiment: cells. The note with it: Homo sapiens, U2OS.
For a further experiment, the system named is MCF 10A. The experiment is described as follows: cells. The note with it: Homo sapiens, MCF-10A, read-out: EC50 for cell killing (μM) / SecinH3.
For the next experiment, the system named is HeLa. Nature of the experiment: cells. The note with it: Homo sapiens, HeLa, read-out: EC50 for cell killing (μM) / SecinH3.
[3] abbreviates: read-out: EC50 for cell killing (μM) / NAV-2729.
Setting [4] is: read-out: EC50 for cell killing (μM) / Bragsin2.
Where [5] appears, read: read-out: EC50 for cell killing (μM) / SecinH3.

Read-outs that look alike come from different tables or passages of the source.

Sequence of ASAP1 (full-length) (Q9QWY8 whole entry): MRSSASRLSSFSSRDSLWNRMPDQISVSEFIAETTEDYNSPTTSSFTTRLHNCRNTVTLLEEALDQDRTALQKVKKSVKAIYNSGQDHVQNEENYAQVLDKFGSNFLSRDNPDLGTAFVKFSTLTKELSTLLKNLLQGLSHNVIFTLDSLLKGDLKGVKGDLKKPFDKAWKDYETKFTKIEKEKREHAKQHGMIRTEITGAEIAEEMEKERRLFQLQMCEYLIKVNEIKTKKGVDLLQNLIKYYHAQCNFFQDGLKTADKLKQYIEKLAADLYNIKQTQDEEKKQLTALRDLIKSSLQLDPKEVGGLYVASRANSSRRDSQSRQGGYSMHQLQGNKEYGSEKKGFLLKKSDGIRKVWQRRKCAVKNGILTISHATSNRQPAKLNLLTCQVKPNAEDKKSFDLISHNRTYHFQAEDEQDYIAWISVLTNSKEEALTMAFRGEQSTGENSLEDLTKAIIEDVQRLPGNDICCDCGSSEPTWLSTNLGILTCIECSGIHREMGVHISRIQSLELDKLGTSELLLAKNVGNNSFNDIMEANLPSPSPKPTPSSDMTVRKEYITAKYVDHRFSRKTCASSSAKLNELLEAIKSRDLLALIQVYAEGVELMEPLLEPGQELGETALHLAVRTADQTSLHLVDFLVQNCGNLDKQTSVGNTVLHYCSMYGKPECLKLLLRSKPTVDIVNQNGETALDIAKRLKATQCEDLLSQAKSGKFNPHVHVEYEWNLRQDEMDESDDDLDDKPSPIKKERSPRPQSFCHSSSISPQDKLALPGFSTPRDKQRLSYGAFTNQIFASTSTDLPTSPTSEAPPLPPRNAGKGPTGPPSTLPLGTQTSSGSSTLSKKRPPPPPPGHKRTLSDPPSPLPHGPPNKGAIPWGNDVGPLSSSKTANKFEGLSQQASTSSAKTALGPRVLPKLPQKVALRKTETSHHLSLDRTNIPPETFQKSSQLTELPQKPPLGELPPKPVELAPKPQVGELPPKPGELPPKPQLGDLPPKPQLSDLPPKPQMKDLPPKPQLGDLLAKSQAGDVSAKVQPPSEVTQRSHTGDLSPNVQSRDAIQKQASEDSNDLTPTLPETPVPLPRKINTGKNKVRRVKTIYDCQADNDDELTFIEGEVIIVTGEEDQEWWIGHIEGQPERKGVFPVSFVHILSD

With `O=c1cc(-c2ccc([N+](=O)[O-])cc2)[nH]c2c(-c3ccc(Cl)cc3)c(Cc3ccccc3)nn12` [NAV-2729], the IC50 – broadly, the midpoint of a concentration-inhibition curve – on ASAP1PZA [1] stood at 4.6 ± 0.9 µM; on ASAP1 (full-length) it was 12.2 ± 1.4 µM; on Brag2Sec7-PH, 7.1 ± 2.5 µM. Moreover, the Kd (commonly a measure of binding affinity in units of concentration) at myrArf1 was greater than 50 µM. Further, the EC50 was 11 µM in the experiment on C2C12 (C2C12, read-out: EC50 for cell killing (μM) / NAV-2729); 11 µM with NIH3T3 (NIH3T3, read-out: EC50 for cell killing (μM) / NAV-2729); 11 µM with SMS-CTR (setting [3]); 8 µM with RD (setting [3]).

Turning to `CCCCCCCC(=O)OC[C@H](COP(=O)(O)O[C@@H]1[C@H](O)[C@H](O)[C@@H](OP(=O)(O)O)[C@H](OP(=O)(O)O)[C@H]1O)OC(=O)CCCCCCC` [diC8-PIP2], the “thermal shift at 200 μM” value at ASAP1PZA [2] was ~ 6 degree.

With `COc1ccc2oc(C(F)(F)F)cc(=O)c2c1[N+](=O)[O-]` [Bragsin2], the EC50 in the experiment with OSA (setting [4]) and in the experiment with U2OS (setting [4]) was greater than 50 µM throughout.

For `COc1nc(-c2ccc3c(c2)OCO3)n(-c2ccc(NC(=O)CSc3ccccc3)cc2)n1` [SecinH3], the EC50 in the experiment with C2C12 (C2C12, read-out: EC50 for cell killing (μM) / SecinH3) was greater than 50 µM; in the experiment on NIH3T3 (NIH3T3, read-out: EC50 for cell killing (μM) / SecinH3), greater than 50 µM; in the experiment with OSA (setting [5]), greater than 50 µM; in the experiment with MCF 10A it was greater than 50 µM; in the experiment with SMS-CTR (setting [5]), greater than 50 µM; in the experiment on HeLa it was greater than 50 µM. The EC50 with U2OS (setting [5]) and in the experiment on RD (setting [5]) was greater than 50 µM in each case.

Regarding `C[C@H]1CCC/C=C/[C@@H]2C[C@H](O)C[C@H]2[C@H](O)/C=C/C(=O)O1` [Brefeldin A], the EC50 with RD (read-out: EC50 for cell killing (μM) / Brefeldin A) amounted to 0.006 ± 0.002 µM.
